Test results as given in PMC8092340 (Oncotarget, 2021).
Entries after “also recorded” stand apart in the source; their conditions may differ. Where two headings read alike, the source gives them in different places. Values belong to the compound of their own block, whether it stands above or below them.

Experiments:
EJ-DR U2OS cells = assay: Cytotoxicity in the absence of DSB ligands (CT), Hoechst cell count; assay type: cell-based, human; details: Supplementary Table 2, mean ± SEM of four technical replicates
HR = assay: EJ-DR 384-well imaging assay, HR (GFP) readout; details: read-out: HR IC50
alt-NHEJ [1] = assay: EJ-DR 384-well imaging assay, alt-NHEJ (RFP) readout; details: for Selectivity Index (HR IC50/alt-NHEJ IC50) / selectivity index SI (CT IC50/alt-NHEJ IC50): ratio; for Selectivity Index (HR IC50/alt-NHEJ IC50): Supplementary Table 2
[2] = Cytotoxicity in the absence of DSB ligands (CT), Hoechst cell count; assay type: cell-based, human; details: human, EJ-DR U2OS cells, no DSB ligands
CYP2D6 = biological target: T1, CYP2D6 (Homo sapiens, UniProt P10635); assay: Cytochrome P450 inhibition assay in human liver microsomes, CYP2D6; assay type: in vitro ADME; details: human liver microsomes
T1 construct: tissue Eurofins Scientific; host or cells: human liver microsomes
T1 sequence (P10635 whole entry): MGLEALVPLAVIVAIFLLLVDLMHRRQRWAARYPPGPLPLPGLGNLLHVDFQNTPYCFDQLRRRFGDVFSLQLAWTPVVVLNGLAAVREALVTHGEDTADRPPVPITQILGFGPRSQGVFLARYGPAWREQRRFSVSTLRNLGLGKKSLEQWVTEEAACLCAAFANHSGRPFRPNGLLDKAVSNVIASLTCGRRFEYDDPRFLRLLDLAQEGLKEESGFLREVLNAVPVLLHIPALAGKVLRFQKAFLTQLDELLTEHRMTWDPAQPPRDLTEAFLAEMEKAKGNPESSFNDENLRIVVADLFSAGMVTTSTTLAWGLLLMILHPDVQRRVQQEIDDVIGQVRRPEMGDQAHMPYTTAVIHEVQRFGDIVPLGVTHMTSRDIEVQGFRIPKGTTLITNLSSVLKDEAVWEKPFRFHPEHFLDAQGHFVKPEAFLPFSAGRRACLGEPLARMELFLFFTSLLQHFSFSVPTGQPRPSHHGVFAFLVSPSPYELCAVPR
Procedure: (§1) CYP inhibition assays were performed by Eurofins Scientific. Test compounds were incubated with human liver microsomes, followed by compound detection using high performance liquid chromatography with tandem mass spectrometry (HPLC-MS/MS).

[3] = Microsomal half-life study; assay type: in vitro ADME; details: mouse, mouse liver microsomes; read-out: mouse liver microsome half-life
[4] = In vivo pharmacokinetic study, plasma
Procedure: (§2) These measurements were used to calculate various pharmacokinetic parameters critical to bioavailability including time to reach maximum concentration (tmax), maximum concentration achieved (Cmax), and half-life (t1/2) (Figure 5C, 5D, Supplementary Table 1).
(§3) Compound concentrations were measured at these time-points using Liquid Chromatography with tandem mass spectrometry (LC-MS-MS). Pharmacokinetic studies were performed by orally dosing test compounds at 30 mg/kg dissolved in 50% PEG400 and 50% water in female athymic nude mice. Plasma and brain tissue concentration were measured using mass spectrometry (MS).

[5] = In vivo pharmacokinetic study, brain tissue; details: for half-life: female, athymic nude, mouse, po, 30 mg/kg
Procedure: as §2, §3

[6] = cited from earlier work
alt-NHEJ [7] = details: ratio; Supplementary Table 2
Human hERG (Kv11.1) = biological target: T2, Human hERG (Kv11.1) (Homo sapiens, UniProt Q12809); assay: Automated hERG inhibition patch clamp assay; assay type: cell-based
T2 construct: host or cells: CHO-K1
T2 sequence (Q12809 whole entry): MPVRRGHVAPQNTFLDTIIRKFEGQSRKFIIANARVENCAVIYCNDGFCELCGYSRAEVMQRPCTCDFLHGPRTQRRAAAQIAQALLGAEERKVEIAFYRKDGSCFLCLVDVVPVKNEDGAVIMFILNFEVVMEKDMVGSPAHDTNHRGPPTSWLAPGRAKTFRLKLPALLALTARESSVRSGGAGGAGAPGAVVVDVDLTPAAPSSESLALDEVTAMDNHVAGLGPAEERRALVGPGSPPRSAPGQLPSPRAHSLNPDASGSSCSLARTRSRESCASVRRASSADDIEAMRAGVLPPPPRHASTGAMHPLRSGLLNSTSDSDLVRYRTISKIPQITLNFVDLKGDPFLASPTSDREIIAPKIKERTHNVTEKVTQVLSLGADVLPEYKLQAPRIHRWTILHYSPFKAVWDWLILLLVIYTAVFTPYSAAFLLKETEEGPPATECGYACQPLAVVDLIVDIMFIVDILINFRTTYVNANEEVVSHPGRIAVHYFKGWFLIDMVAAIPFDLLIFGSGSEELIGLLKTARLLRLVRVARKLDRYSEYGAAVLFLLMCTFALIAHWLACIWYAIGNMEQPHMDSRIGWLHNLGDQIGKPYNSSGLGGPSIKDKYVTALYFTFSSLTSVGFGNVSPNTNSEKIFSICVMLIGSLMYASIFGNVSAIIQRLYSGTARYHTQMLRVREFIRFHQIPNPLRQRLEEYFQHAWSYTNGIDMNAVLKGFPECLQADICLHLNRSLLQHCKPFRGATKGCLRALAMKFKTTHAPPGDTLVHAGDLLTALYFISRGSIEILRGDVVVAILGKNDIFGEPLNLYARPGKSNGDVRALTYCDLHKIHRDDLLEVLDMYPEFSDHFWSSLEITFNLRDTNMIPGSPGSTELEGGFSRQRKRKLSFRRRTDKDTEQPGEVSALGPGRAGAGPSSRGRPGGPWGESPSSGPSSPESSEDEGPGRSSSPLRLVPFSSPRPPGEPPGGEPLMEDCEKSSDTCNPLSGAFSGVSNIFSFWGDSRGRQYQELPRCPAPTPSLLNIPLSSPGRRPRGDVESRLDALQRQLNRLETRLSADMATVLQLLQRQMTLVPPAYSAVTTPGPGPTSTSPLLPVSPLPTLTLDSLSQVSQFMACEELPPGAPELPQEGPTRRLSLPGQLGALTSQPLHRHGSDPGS
Procedure: Automated whole cell voltage clamp hERG inhibition assays were performed in Human hERG (Kv11.1) expressed in CHO-K1 cells optimized for automated patch clamp studies by Sophion Bioscience A/S [47].

L type Cav 1.2 = biological target: T3, L type Cav 1.2 (Homo sapiens, UniProt Q13936); assay: Calcium channel blocking study, L-type; assay type: cell-based; details: CHO cells stably expressing the channel
T3 construct: host or cells: CHO

T type Cav 3.1 = biological target: T4, T type Cav 3.1 (Homo sapiens, UniProt O43497); assay: Calcium channel blocking study, T-type Cav3.1; assay type: cell-based; details: HEK293 cells stably expressing the channel
T4 construct: host or cells: HEK293

T type Cav 3.2 = biological target: T5, T type Cav 3.2 (Homo sapiens, UniProt O95180); assay: Calcium channel blocking study, T-type Cav3.2; assay type: cell-based; details: HEK293 cells stably expressing the channel
T5 construct: host or cells: HEK293
T5 sequence (O95180 whole entry): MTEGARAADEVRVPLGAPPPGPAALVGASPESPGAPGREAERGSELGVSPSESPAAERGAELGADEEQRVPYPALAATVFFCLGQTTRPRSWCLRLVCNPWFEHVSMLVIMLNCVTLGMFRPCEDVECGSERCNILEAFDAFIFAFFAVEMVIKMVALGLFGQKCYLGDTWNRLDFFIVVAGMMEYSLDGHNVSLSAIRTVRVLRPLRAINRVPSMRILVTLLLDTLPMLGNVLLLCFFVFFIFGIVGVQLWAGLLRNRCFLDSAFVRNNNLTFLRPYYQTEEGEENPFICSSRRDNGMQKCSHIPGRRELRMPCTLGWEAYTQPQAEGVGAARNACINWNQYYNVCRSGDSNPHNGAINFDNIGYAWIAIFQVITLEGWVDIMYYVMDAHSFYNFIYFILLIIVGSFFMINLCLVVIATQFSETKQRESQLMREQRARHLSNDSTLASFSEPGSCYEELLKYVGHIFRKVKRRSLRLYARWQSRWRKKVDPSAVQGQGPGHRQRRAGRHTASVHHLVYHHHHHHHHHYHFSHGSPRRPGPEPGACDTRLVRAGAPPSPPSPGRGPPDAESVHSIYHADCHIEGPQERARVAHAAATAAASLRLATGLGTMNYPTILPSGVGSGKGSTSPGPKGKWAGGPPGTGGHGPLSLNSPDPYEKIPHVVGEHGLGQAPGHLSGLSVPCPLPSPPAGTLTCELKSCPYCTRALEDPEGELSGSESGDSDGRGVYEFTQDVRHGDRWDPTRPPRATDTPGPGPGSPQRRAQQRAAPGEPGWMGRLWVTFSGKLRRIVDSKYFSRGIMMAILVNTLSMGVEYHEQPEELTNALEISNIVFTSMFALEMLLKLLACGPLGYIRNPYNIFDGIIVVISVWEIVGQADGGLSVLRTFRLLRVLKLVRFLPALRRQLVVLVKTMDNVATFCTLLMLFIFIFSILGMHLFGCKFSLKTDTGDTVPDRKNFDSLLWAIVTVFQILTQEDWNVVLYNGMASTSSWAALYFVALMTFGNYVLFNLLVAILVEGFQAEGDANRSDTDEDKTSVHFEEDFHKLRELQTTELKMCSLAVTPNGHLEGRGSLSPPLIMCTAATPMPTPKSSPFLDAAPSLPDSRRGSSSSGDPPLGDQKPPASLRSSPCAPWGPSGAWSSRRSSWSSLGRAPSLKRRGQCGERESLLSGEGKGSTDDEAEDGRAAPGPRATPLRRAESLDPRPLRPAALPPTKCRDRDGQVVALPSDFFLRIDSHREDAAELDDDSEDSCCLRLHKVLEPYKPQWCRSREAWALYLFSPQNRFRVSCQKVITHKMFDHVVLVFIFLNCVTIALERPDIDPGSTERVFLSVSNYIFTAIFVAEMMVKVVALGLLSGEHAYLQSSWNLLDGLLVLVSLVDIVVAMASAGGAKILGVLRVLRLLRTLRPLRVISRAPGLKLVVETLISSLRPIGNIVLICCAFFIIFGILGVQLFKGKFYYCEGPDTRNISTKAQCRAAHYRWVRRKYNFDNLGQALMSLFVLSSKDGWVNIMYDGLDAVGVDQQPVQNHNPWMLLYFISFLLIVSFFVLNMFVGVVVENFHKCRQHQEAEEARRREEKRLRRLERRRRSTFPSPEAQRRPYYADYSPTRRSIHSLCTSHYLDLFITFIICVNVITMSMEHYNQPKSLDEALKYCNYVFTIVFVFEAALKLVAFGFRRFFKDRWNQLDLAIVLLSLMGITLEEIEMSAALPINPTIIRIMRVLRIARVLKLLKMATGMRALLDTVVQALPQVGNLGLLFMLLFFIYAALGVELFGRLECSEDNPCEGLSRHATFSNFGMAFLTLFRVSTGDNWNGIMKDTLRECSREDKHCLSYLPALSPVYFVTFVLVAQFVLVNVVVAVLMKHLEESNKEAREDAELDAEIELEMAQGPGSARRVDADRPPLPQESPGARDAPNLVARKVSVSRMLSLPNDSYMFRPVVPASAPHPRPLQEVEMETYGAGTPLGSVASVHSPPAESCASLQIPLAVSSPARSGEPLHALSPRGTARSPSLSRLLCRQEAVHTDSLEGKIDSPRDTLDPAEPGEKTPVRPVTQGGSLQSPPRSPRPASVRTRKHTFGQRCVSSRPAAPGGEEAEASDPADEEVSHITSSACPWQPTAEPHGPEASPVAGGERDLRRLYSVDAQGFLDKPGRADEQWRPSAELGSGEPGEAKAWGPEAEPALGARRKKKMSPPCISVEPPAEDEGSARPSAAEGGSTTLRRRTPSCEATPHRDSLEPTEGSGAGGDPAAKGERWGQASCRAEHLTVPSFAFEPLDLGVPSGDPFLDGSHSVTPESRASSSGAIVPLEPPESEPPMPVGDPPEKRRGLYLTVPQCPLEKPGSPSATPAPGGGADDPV

T type Cav 3.3 = biological target: T6, T type Cav 3.3 (Homo sapiens, UniProt Q9P0X4); assay: Calcium channel blocking study, T-type Cav3.3; assay type: cell-based; details: HEK293 cells stably expressing the channel
T6 construct: host or cells: HEK293

CYP3A4 = biological target: T7, CYP3A4 (Homo sapiens, UniProt P08684); assay: Cytochrome P450 inhibition assay in human liver microsomes, CYP3A4; assay type: in vitro ADME
T7 construct: tissue Eurofins Scientific; host or cells: human liver microsomes
T7 sequence (P08684 whole entry): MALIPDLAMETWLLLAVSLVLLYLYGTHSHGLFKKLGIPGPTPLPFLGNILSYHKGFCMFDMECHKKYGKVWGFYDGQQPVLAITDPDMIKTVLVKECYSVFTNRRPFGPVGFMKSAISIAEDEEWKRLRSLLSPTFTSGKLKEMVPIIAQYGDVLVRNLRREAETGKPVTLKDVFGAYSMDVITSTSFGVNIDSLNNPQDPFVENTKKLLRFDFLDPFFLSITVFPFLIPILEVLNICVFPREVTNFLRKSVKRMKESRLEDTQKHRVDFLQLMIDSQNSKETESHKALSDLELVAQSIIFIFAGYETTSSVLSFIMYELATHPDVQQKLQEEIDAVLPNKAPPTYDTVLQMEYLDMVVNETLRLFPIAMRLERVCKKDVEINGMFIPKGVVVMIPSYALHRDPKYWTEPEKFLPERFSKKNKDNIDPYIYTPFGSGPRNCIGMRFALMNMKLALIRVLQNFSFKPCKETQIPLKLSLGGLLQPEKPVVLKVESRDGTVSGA
Procedure: as §1

[8] = Homo sapiens, read-out: alt-NHEJ IC50
[9] = Table 1, read-out: Cytotoxicity IC50
[10] = oral 30 mg/kg, female athymic nude mice
[11] = recurrent GBM patients, mibefradil with hypofractionated RT
[12] = Homo sapiens, U2OS, read-out: alt-NHEJ IC50
[13] = Homo sapiens, read-out: nc-EJ IC50
[14] = figures, read-out: CT IC50 (cytotoxicity)

SMILES: CO[C@H]1C[C@@H]2CC[C@@H](C)[C@@](O)(O2)C(=O)C(=O)N2CCCC[C@H]2C(=O)O[C@H]([C@H](C)C[C@@H]2CC[C@@H](OCCO)[C@H](OC)C2)CC(=O)[C@H](C)/C=C(\C)[C@@H](O)[C@@H](OC)C(=O)[C@H](C)C[C@H](C)/C=C/C=C/C=C/1C [Everolimus]
IC50 (EJ-DR U2OS cells; Homo sapiens, U2OS): 3.17 ± 2.05 µM | IC50 (HR; Homo sapiens): 0.07 ± 0.03 µM | IC50 (alt-NHEJ [1]; [8]): 0.05 ± 0.03 µM | Selectivity Index (HR IC50/alt-NHEJ IC50) (alt-NHEJ [1]): 1.40

SMILES: COCC(=O)O[C@]1(CCN(C)CCCc2nc3ccccc3[nH]2)CCc2cc(F)ccc2[C@@H]1C(C)C [Mibefradil, mibefradil]
IC50 at 96 h [2, 9]: 10.5 µM | IC50 (CYP2D6): 0.6 µM | half-life [3]: 0.25 h | half-life ([4]; female, athymic nude, mouse, plasma, po, 30 mg/kg): 2.6 h | Cmax ([4]; female, athymic nude, mouse, plasma, po, 30 mg/kg, Maximum concentration (Cmax), oral 30 mg/kg, female athymic nude mice, YU252222 given as methyl ester prodrug): 1090 ng/mL | % AUC Extrapolation [4, 10]: 0.4% | AUC(0-x)/Dose [4, 10]: 161 ng·h/mL/mg/kg | Cmax/Dose [4, 10]: 36.3 ng/mL/mg/kg | Time at which Cmax was observed (tmax) [4, 10]: 1.0 h | half-life ([5]; brain): ~8 h | patients showing QT prolongation ([6]; mibefradil phase I trial, ref manuscript under preparation, 12): five out of 19 | QT interval elongation, dose-limiting toxicity [6, 11]: 28% | sinus bradycardia, dose-limiting toxicity [6, 11]: 28% | IC50 (HR; Homo sapiens): > 60 µM | effect on alt-NHEJ and HR in the EJ-DR assay (alt-NHEJ [1]; EJ-DR U2OS cells): selective inhibition of alt-NHEJ over HR without significant cellular cytotoxicity; also recorded: selective inhibition of alt-NHEJ over HR | IC50 (alt-NHEJ [1]; [12]): ~4 µM | IC50 (alt-NHEJ [1]; [13]): 3.8 µM

SMILES: NC1(C(=O)N[C@@H](CCO)c2ccc(Cl)cc2)CCN(c2ncnc3[nH]ccc23)CC1 [AZD 5363]
IC50 (EJ-DR U2OS cells; Homo sapiens, U2OS): 48.5 ± 73 µM | IC50 (HR; Homo sapiens): 31.6 ± 59.2 µM | IC50 (alt-NHEJ [1]; [8]): 16.9 ± 26.5 µM | Selectivity Index (HR IC50/alt-NHEJ IC50) (alt-NHEJ [1]): 1.87

SMILES: COc1ccc(-c2ccc3c(N4CCOC[C@@H]4C)nc(N4CCOC[C@@H]4C)nc3n2)cc1CO [AZD 8055]
IC50 (EJ-DR U2OS cells; Homo sapiens, U2OS): 0.89 ± 0.28 µM | IC50 (HR; Homo sapiens): 2.85 ± 1.04 µM | IC50 (alt-NHEJ [1]; [8]): 0.05 ± 0.01 µM | Selectivity Index (HR IC50/alt-NHEJ IC50) (alt-NHEJ [1]): 57.00

SMILES: CC(C)[C@H]1c2ccc(F)cc2CC[C@]1(O)CCN(C)CC(O)c1ccccc1 (stereo partly shown) [YU241553]
IC50 at 96 h [2, 14]: 24 µM | IC50 (alt-NHEJ [1]; [12]): 8.87 µM | selectivity index SI (CT IC50/alt-NHEJ IC50) (alt-NHEJ [1]): 2.71

SMILES: Cn1ncc(Cl)c1-c1cc(C(=O)N[C@H](CN)Cc2cccc(F)c2)sc1Cl [Afuresertib]
IC50 (EJ-DR U2OS cells; Homo sapiens, U2OS): 14.2 ± 2.32 µM | Selectivity Index (HR IC50/alt-NHEJ IC50) (alt-NHEJ [7]): 7.43 | IC50 (HR; Homo sapiens): 4.53 ± 5.75 µM | IC50 (alt-NHEJ [1]; [8]): 0.61 ± 0.46 µM

SMILES: CC(C)[C@H]1c2ccc(F)cc2CC[C@]1(O)CCN1C[C@H](Oc2nccc3ccccc23)C[C@H]1CO [YU252223]
IC50 (Human hERG (Kv11.1); patch clamp, CHO-K1 cells): 6.8 µM | SIhERG (hERG IC50/alt-NHEJ IC50), called fold reduction in hERG potency (Human hERG (Kv11.1); ratio): 4.14 | IC50 (alt-NHEJ [1]; [12]): 1.64 µM

SMILES: CC(C)[C@H]1c2ccc(F)cc2CC[C@]1(O)CC(=O)N(C)CCCc1nc2ccccc2[nH]1 [YU241551]
IC50 at 96 h [2, 14]: > 60 µM | IC50 (alt-NHEJ [1]; [12]): > 60 µM | selectivity index SI (CT IC50/alt-NHEJ IC50) (alt-NHEJ [1]): > 1

SMILES: CC(C)C(C(=O)NCCCN1CC=C(c2ccc(Cl)cc2)CC1)c1ccc(F)cc1 (stereo not shown) [YU252386]
IC50 at 96 h [2, 9]: 17.9 µM | IC50 (L type Cav 1.2): 5.6 µM | IC50 (T type Cav 3.1): 0.9 µM | IC50 (T type Cav 3.2): 0.9 µM | IC50 (T type Cav 3.3): 1.1 µM | IC50 (CYP3A4; human liver microsomes): 17.9 µM | selectivity ratio (CYP3A4; human, human liver microsomes, ratio, read-out: SICYP 3A4 (selectivity index of CYP, CYP3A4 IC50 to alt-NHEJ IC50), called fold decrease in CYP3A4 inhibition): 16.9 | SICYP 3A4 (selectivity index of CYP, CYP3A4 IC50 to alt-NHEJ IC50), called fold decrease in CYP3A4 inhibition (CYP3A4; ratio): ~ 17 | IC50 (CYP2D6): 0.87 µM | selectivity ratio (CYP2D6; human, ratio, read-out: SICYP 2D6 (selectivity index of CYP, CYP2D6 IC50 to alt-NHEJ IC50), called fold decrease in CYP2D6 inhibition): 0.82 | half-life ([4]; female, athymic nude, mouse, in vivo, po, 30 mg/kg): 4.01 h | % AUC Extrapolation [4, 10]: 7.5% | AUC(0-x)/Dose [4, 10]: 45.0 ng·h/mL/mg/kg | Cmax/Dose [4, 10]: 11.3 ng/mL/mg/kg | Time at which Cmax was observed (tmax) [4, 10]: 1.0 h | plasma concentration compared with mibefradil [4, 10]: ~ 0.3 fold | Area under concentration vs time curve (AUC) (0-x) ([4]; oral 30 mg/kg, female athymic nude mice, YU252222 given as methyl ester prodrug): 1350 ng·h/mL | half-life ([5]; in vivo): ~2.5 h | brain concentration relative to the alt-NHEJ IC50 [5, 10]: ~ 3 fold | brain exposure compared to mibefradil [5, 10]: ~ 8 fold | percent coverage of the in vitro alt-NHEJ IC50 at the Cmax in the brain [5, 10]: 300% | IC50 (HR; Homo sapiens): > 60 µM | IC50 (alt-NHEJ [1]; [12]): 1.06 µM | IC50 (alt-NHEJ [1]; [13]): 1.1 µM

Second part, led by results:

IC50 (HR; EJ-DR assay, Supplementary Table 2, mean ± SEM of four technical replicates): > 60 µM
SMILES: CCc1cncnc1N1CCN(Cc2nc3ccc(C(F)(F)F)cc3[nH]2)CC1 [PF-04708671]
IC50 (EJ-DR U2OS cells): 36.9 ± 3.82 µM | IC50 (alt-NHEJ [1]; read-out: alt-NHEJ IC50, EJ-DR assay, Supplementary Table 2, mean ± SEM of four technical replicates): > 60 µM

IC50 (HR; Homo sapiens): 22.1 ± 1.84 µM
SMILES: CC(C)NC[C@@H](C(=O)N1CCN(c2ncnc3c2[C@H](C)C[C@H]3O)CC1)c1ccc(Cl)cc1 [GDC-0068]
IC50 (EJ-DR U2OS cells; Homo sapiens, U2OS): 41.5 ± 3.32 µM | IC50 (alt-NHEJ [1]; [8]): 9.4 ± 1.78 µM | Selectivity Index (HR IC50/alt-NHEJ IC50) (alt-NHEJ [1]): 2.35
